Assay results: patent US9869616B2, “Hydrogel encapsulated cell patterning and transferring method and cell-based biosensor using the same” (UNIST ACADEMY-INDUSTRY RESEARCH CORPORATION, priority 2011, dated 2018)

Legend:
[1] = test system: strain DH10B with plasmid pTrc99A-gfp; assay: Extracellular induction of hydrogel-encapsulated cells with pTrc99A-gfp (GFP expression) by the HPT method; type: cell-based, Escherichia coli; details: 1 mM IPTG in agarose substrate; average of 10 hydrogel microparticles; GFP produced until 8 hours
Protocol: Competent cells of the MG1655 and DH10B were transformed with synthetically engineered genetic circuits. Some plasmids were transferred from the Registry of Standard Biological Parts, and the others were constructed in the experiment with different antibiotic resistance marker genes. For the growth of these strains, each Escherichia coli culture was grown overnight on M 9 agar solid medium plates with appropriate antibiotics at 35° C. A single colony was used to inoculate 5 mL M9 media with 1% glucose, 1% tryptone, and either 100 μg/mL ampicillin or 30 μg/mL chloramphenicol. Thereafter, the cultures were then grown overnight (16 hours) with vigorous aeration (200 rpm in a rotary shaker), and OD600=1.5-2 cells (1-2 mL) were centrifuged at 5000 rpm for 5 min. The obtained pellet was resuspended with fresh M9 media to give bacterial suspensions with desired cell densities. […]
The images of cell patterns were taken using a stereomicroscope (SZX16, Olympus, Japan) equipped with a CCD camera (DP72, Olympus, Japan) and a fluorescent light source (Xcite-200, ExFo Photonics solutions Inc., Mississauga, Canada) operated by the DP2-BSW software (Olympus, Japan). […] All image processing and quantification of fluorescent intensities were performed using Image J. (NIH, USA), and then results were plotted using Origin 7.1 (OriginLab, Northampton, Mass., USA). […]

[2] = test system: araBAD promoter (PBAD) of pZBRG; assay: Induction of RFP from the genetic circuit pZBRG (araBAD promoter) in hydrogel-encapsulated cells; type: cell-based, Escherichia coli

Row | SMILES | gene expression level (average GFP fluorescent intensity) [1] | RFP expression of patterned cells ([2]; 400 mM arabinose in agarose substrate, in 8 hours) | threshold concentration (inducer gradient) ([2]; RFP gradient reaches saturated values in about 10 hours) | cross-talk on simultaneous induction (RFP) ([2]; both tetracycline (1 μM) and arabinose (400 μM)) | fluorescent signals detected, separate induction ([2]; only arabinose (400 μM) in agarose substrate)
1 | CC(C)S[C@@H]1O[C@H](CO)[C@H](O)[C@H](O)[C@H]1O [IPTG, isopropyl-beta-D-thiogalactopyranoside] | 40 AU |  |  |  | 
2 | O=C[C@@H](O)[C@H](O)[C@H](O)CO [arabinose] |  | activated to express red fluorescent protein (RFP) | relatively high | no significant cross-talk was observed | only RFP signals were detected
